Measurements from publication PMC7915765, “Biochemical Characterization, Specificity and Inhibition Studies of HTLV-1, HTLV-2, and HTLV-3 Proteases” (Life, 2021).
Entries after “also recorded” stand apart in the source; their conditions may differ. Like-named read-outs stand apart in the source and are kept apart here.

Experiments:
[1] = molecular target: T1, HTLV-3 PR (Human T-cell leukemia virus 3, UniProt Q4U0X6); assay: Inhibition study with HIV-1 PIs, HTLV-3 PR; format: biochemical; parameters: made in house; host or cells: E. coli BL21(DE3), pET11a; conditions: inhibitor 1 µM final, substrate HTLV-3 MA/CA 0.40–0.43 mM, DMSO control = 100%, n = 2
T1 sequence (Q4U0X6 431-553): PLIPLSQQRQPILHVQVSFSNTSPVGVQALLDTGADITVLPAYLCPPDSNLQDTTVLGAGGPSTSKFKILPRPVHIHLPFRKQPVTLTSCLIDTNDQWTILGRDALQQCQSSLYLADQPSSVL
Experimental: The IB-268 (KTKVL-r-VVQPK) and IB-269 (APQVL-r-PVMHP) reduced peptide bond (-r-)-containing inhibitors, which were synthesized by Dr. Ivo Blaha (Ferring Leciva, Prague, Czech Republic).
The reaction mixtures were prepared to contain 4.8 µL of substrate (in 0.40–0.43 mM final concentration), 0.2 µL of inhibitor, 5 µL of the enzyme, and 10 µL of a 2× incubation buffer. The substrates representing HTLV-2 and HTLV-3 MA/CA cleavage sites were used for HTLV-2 and HTLV-3 PRs, respectively. In the case of HIV-1 PIs, we applied 100 µM inhibitor stocks, while 0.5–100 µM stocks of IB-268 and IB-269 were used for screening. The inhibitors were dissolved in DMSO. Therefore, 0.2 µL of DMSO was added to the control samples.

[2] = molecular target: T2, HTLV-2 PR (Human T-cell leukemia virus 2, UniProt P03363); assay: Inhibition study with HIV-1 PIs, HTLV-2 PR; format: biochemical, human T-cell leukemia virus type 2; parameters: made in house; host or cells: E. coli BL21(DE3); conditions: inhibitor 1 µM final, substrate HTLV-2 MA/CA 0.40–0.43 mM, DMSO control = 100%, n = 2
T2 sequence (P03363 447-571): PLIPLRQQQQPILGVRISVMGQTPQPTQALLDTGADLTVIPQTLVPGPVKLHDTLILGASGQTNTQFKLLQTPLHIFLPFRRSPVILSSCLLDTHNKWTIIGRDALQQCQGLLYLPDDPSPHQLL
Experimental: The inhibitors were dissolved in DMSO.

[3] = molecular target: T1, HTLV-3 PR; assay: Protease activity assay with oligopeptide substrates (RP-HPLC), HTLV-3 PR; format: biochemical, human T-cell leukemia virus type 3; parameters: made in house; host or cells: E. coli BL21(DE3), pET11a; conditions: pH 5.6, 37 °C
Description: (§1) The oligopeptides representing the naturally occurring matrix/capsid (MA/CA), capsid/nucleocapsid (CA/NC), trans-frame protein/protease (TF1/PR), and PR/p1 cleavage sites of HTLV-1, -2, and -3 PRs were used as substrates. The oligopeptide substrates representing the natural sequences of HTLV PRs were ordered from BioBasic, while the oligopeptide substrates representing naturally occurring cleavage sites of various viruses, or the wild-type, the shortened, and the P4, P3, P2, P1, or P1′ variants of HTLV-1 MA/CA cleavage site (KTKVL*VVQPK) were in-house stocks. All peptides were dissolved in distilled water.
(§2) For kinetic measurements, we applied 10 µL 2× incubation buffer (0.5 M K3PO4, 4 M NaCl, 10 v/v% glycerol, 10 mM DTT, pH 5.6), 5 µL of HTLV-1, HTLV-2, or HTLV-3 PR (final concentration of the active enzyme was in 0.1–34.4 nM), and 0.5–5 µL oligopeptide substrate representing HTLV PR natural cleavage sites (0.05–1.10 mM final concentration). The final volume of the reaction mixture was set to 20 µL with distilled water if it was necessary. The reactions were initiated by the addition of the enzyme, were incubated at 37 °C for 0.5–4 h, and stopped by the addition of 180 µL 1 v/v% TFA. For substrates representing natural cleavage sites of retroviruses other than HTLV-1, -2, and -3 PRs (HIV-1, equine infectious anemia virus (EIAV), Rous sarcoma virus (RSV), mouse mammary tumor virus (MMTV), Mason-Pfizer monkey virus (MPMV), and murine leukemia virus (MuLV) and BLV) in a longer incubation time (24 h) was also applied. The cleavage products were separated by using a Nova-Pack C18 RP-HPLC column (3.9 mm × 150 mm, Waters Associates Inc, Milford, MA, USA) on HPLC (Merck-Hitachi LaChrom). Water-acetonitrile gradient (0–100%) was used for separation in the presence of 0.05% TFA at 2 mL/min flow rate. The kinetic parameters were determined by fitting the data—obtained at less than 20% substrate hydrolysis—to the Michaelis–Menten equation. The Gaussian equation was used to determine pH optimum and exponential growth equation for determination of optimal NaCl concentration, while linear regression was applied to plot the dependence of enzyme activity on temperature. Prism8 software (GraphPad Software Inc., San Diego, CA, USA) was used for evaluation. The kcat/KM catalytic constants were calculated based on the active enzyme concentration, which was determined by active site titration using the method described previously.

[4] = molecular target: T2, HTLV-2 PR; assay: Protease activity assay with oligopeptide substrates (RP-HPLC), HTLV-2 PR; format: biochemical, human T-cell leukemia virus type 2; parameters: made in house; host or cells: E. coli BL21(DE3); conditions: pH 5.6, 37 °C
Description: as §1, §2

[5] = system: HTLV-1 PR; assay: Protease activity assay with oligopeptide substrates (RP-HPLC), HTLV-1 PR; format: biochemical, human T-cell leukemia virus type 1; conditions: substrate 0.05–1.10 mM, 2× buffer 0.5 M K3PO4, 4 M NaCl, 10 v/v% glycerol, 10 mM DTT, pH 5.6, 37 °C, 0.5–4 h
Description: as §1, §2

[6] = system: HTLV-1 PR; conditions: cleavage sites of viruses other than HTLV, retrieved from the literature, ref [28]; cited from earlier work
Description: Table 2 Catalytic efficiencies of HTLV PRs on different substrates representing natural cleavage site sequences. Cleavage sites are labelled by asterisks within the sequences. Abbreviations: MA (matrix), CA (capsid), NC (nucleocapsid), and TF1 (trans-frame 1). | column: kcat/KM [mM^−1 s^−1] / HTLV-1 PR || Table 3 Catalytic efficiencies of HTLV PRs on different substrates representing natural cleavage site sequences of viruses other than HTLV. Cleavage sites are labelled by an asterisk within the sequences. Abbreviations: MA (matrix), CA (capsid), NC (nucleocapsid), TF (transframe), RT (reverse-transcriptase), and IN (integrase). | column: Substrate; kcat/KM (mM^−1 s^−1) / HTLV-1 PR ^1

[7] = system: HIV-1 PR; conditions: cleavage sites of viruses other than HTLV, retrieved from the literature, ref [28]; cited from earlier work
Description: Table 3 Catalytic efficiencies of HTLV PRs on different substrates representing natural cleavage site sequences of viruses other than HTLV. Cleavage sites are labelled by an asterisk within the sequences. Abbreviations: MA (matrix), CA (capsid), NC (nucleocapsid), TF (transframe), RT (reverse-transcriptase), and IN (integrase). | column: kcat/KM (mM^−1 s^−1) / HIV-1 PR ^1

[8] = system: HTLV-1 PR; conditions: ref [28], cited from earlier work; for activity of mutant (in words): HTLV-1 PR mutants, L57G with HTLV-1 CA/NC substrate (KTKVL*VVQPK); for self-processing: HTLV-1 PR, designed and characterized previously
Description: Table 5 Effects of protease mutations on autoproteolytic activity of HTLV PRs. | column: Self-Processing || We prepared mutant HTLV-2 and HTLV-3 PRs, which contained mutations that were introduced previously to HTLV-1 PR to study its self-processing capability. The rationale behind the former mutation design was to prepare mutant HTLV-1 PRs that contain HIV-1-like residues in the flap region (57th and 59th) or at the active site (37th and 67th). The herein studied enzymes also contained the same mutations in the corresponding positions (Figure 10). All modified residue constitutes a part of substrate binding sites (Table 4).

[9] = natural HTLV cleavage sites, substrate 0.05–1.10 mM, 2× buffer 0.5 M K3PO4, 4 M NaCl, 10 v/v% glycerol, 10 mM DTT, 0.5–4 h
[10] = cleavage sites of viruses other than HTLV, longer incubation time (24 h) also applied

O=C1N(Cc2ccc(CO)cc2)[C@H](Cc2ccccc2)[C@H](O)[C@@H](O)[C@@H](Cc2ccccc2)N1Cc1ccc(CO)cc1 [DMP-323]
loss of activity [1]: < 50% | loss of activity [2]: < 50%

COC(=O)N[C@H](C(=O)N[C@@H](Cc1ccccc1)[C@@H](O)CN(Cc1ccc(-c2ccccn2)cc1)NC(=O)[C@@H](NC(=O)OC)C(C)(C)C)C(C)(C)C [atazanavir]
loss of activity [1]: < 50% | loss of activity [2]: < 50%

CC(C)(C)NC(=O)[C@@H]1C[C@@H]2CCCC[C@@H]2CN1C[C@@H](O)[C@H](Cc1ccccc1)NC(=O)[C@H](CC(N)=O)NC(=O)c1ccc2ccccc2n1 [saquinavir]
loss of activity [1]: < 50% | loss of activity [2]: < 50%

ASQCL*PILHP [HTLV-3 MA/CA, oligopeptide substrate ASQCL*PILHP]
kcat/KM [3, 9]: 19700 ± 4400 M⁻¹ s⁻¹ | kcat/KM [4, 9]: 2600 ± 400 M⁻¹ s⁻¹ | kcat/KM [5]: 40900 ± 10400 M⁻¹ s⁻¹

KNKIL*MIQPK [HTLV-3 CA/NC, oligopeptide substrate KNKIL*MIQPK]
kcat/KM [5]: not cleaved

PHQLL*PIATP [HTLV-2 PR/P1, oligopeptide substrate PHQLL*PIATP]
kcat/KM [3, 9]: 7500 ± 2700 M⁻¹ s⁻¹ | kcat/KM [4, 9]: 92200 ± 41400 M⁻¹ s⁻¹ | kcat/KM [5]: 10700 ± 4800 M⁻¹ s⁻¹

PRTIL*PVIPL [HTLV-3 TF1/PR, oligopeptide substrate PRTIL*PVIPL]
kcat/KM [5]: 109800 ± 29300 M⁻¹ s⁻¹

PSKVL*PVLAP [HTLV-3 PR/P1, oligopeptide substrate PSKVL*PVLAP]
kcat/KM [3, 9]: 22600 ± 5800 M⁻¹ s⁻¹ | kcat/KM [4, 9]: 2100 ± 300 M⁻¹ s⁻¹ | kcat/KM [5]: 7000 ± 2600 M⁻¹ s⁻¹

SPRTIL*PLIP [HTLV-2 TF1/PR, oligopeptide substrate SPRTIL*PLIP]
kcat/KM [3, 9]: 5000 ± 1100 M⁻¹ s⁻¹ | kcat/KM [4, 9]: 132500 ± 42500 M⁻¹ s⁻¹ | kcat/KM [5]: 4900 ± 1100 M⁻¹ s⁻¹

TSTLL*IENSS [MuLV RT/IN, oligopeptide substrate TSTLL*IENSS]
kcat/KM [3, 10]: not cleaved | kcat/KM [4, 10]: not cleaved | kcat/KM [6]: not cleaved | kcat/KM [7]: not cleaved

TTQCF*PILHP [HTLV-2 MA/CA, oligopeptide substrate TTQCF*PILHP]
kcat/KM [3, 9]: 37800 ± 20200 M⁻¹ s⁻¹ | kcat/KM [4, 9]: 4300 ± 500 M⁻¹ s⁻¹ | kcat/KM [5]: 14400 ± 4300 M⁻¹ s⁻¹

VSFNF*PQITL [HIV-1 TF/PR, oligopeptide substrate VSFNF*PQITL]
kcat/KM [3, 10]: not cleaved | kcat/KM [4, 10]: not cleaved | kcat/KM [6]: not cleaved | kcat/KM [7]: 6900 M⁻¹ s⁻¹

VSQNY*PIVQ [HIV-1 MA/CA, oligopeptide substrate VSQNY*PIVQ]
kcat/KM [3, 10]: not cleaved | kcat/KM [4, 10]: not cleaved | kcat/KM [6]: not cleaved | kcat/KM [7]: 45300 M⁻¹ s⁻¹

B1: HTLV-1 L57G (protein, UniProt P10274 450-574, looked up, variant L57G)
Protease: PVIPLDPARRPVIKAQVDTQTSHPKTIEALLDTGADMTVLPIALFSSNTPLKNTSVGGAGGQTQDHFKLTSLPVLIRLPFRTTPIVLTSCLVDTKNNWAIIGRDALQQCQGVLYLPEAKRPPVIL
modifications: Protease
activity of mutant (in words) [8]: inefficient enzyme; also recorded: did not hydrolyze the CA/NC cleavage site peptide

B2: HTLV-1 wild-type: wild-type HTLV-1 PR, self-processing studied previously (protein, UniProt P10274 450-574, looked up)
Protease: PVIPLDPARRPVIKAQVDTQTSHPKTIEALLDTGADMTVLPIALFSSNTPLKNTSVLGAGGQTQDHFKLTSLPVLIRLPFRTTPIVLTSCLVDTKNNWAIIGRDALQQCQGVLYLPEAKRPPVIL
modifications: Protease
notes: wild-type HTLV-1 PR, self-processing studied previously
self-processing [8]: yes

B3: HTLV-1 M37D (protein, UniProt P10274 450-574, looked up, variant M37D)
Protease: PVIPLDPARRPVIKAQVDTQTSHPKTIEALLDTGADDTVLPIALFSSNTPLKNTSVLGAGGQTQDHFKLTSLPVLIRLPFRTTPIVLTSCLVDTKNNWAIIGRDALQQCQGVLYLPEAKRPPVIL
modifications: Protease
self-processing [8]: no

B4: HTLV-1 F67Q (protein, UniProt P10274 450-574, looked up, variant F67Q)
Protease: PVIPLDPARRPVIKAQVDTQTSHPKTIEALLDTGADMTVLPIALFSSNTPLKNTSVLGAGGQTQDHQKLTSLPVLIRLPFRTTPIVLTSCLVDTKNNWAIIGRDALQQCQGVLYLPEAKRPPVIL
modifications: Protease
activity of mutant (in words) [8]: not tolerated | self-processing [8]: no

B5: HTLV-1 A59I (protein, UniProt P10274 450-574, looked up, variant A59I)
Protease: PVIPLDPARRPVIKAQVDTQTSHPKTIEALLDTGADMTVLPIALFSSNTPLKNTSVLGIGGQTQDHFKLTSLPVLIRLPFRTTPIVLTSCLVDTKNNWAIIGRDALQQCQGVLYLPEAKRPPVIL
modifications: Protease
activity of mutant (in words) [8]: undetectable activity
